Experimental data as given in PubChem BioAssay (NCI).
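A five-concentration, 48-hour dose response in 96-well plates underlies each endpoint, interpolated linearly between surrounding concentrations. At the GI50, growth is halved. TGI marks complete inhibition of growth.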

Legend:
Assay in all cases: NCI tumour cell line growth inhibition, 48 h
A498 renal = tested on: A498 renal
NCI-H23 lung = tested on: NCI-H23 lung
SK-MEL-5 melanoma = tested on: SK-MEL-5 melanoma
CAKI-1 renal = tested on: CAKI-1 renal
OVCAR-3 ovarian = tested on: OVCAR-3 ovarian
BT-549 breast = tested on: BT-549 breast
ACHN renal = tested on: ACHN renal
NCI-H522 lung = tested on: NCI-H522 lung
UACC-257 melanoma = tested on: UACC-257 melanoma
RPMI-8226 leukemia = tested on: RPMI-8226 leukemia
HOP-62 NSCLC = tested on: HOP-62 NSCLC
UO-31 renal = tested on: UO-31 renal
MDA-MB-231 breast = tested on: MDA-MB-231 breast
HS 578T breast = tested on: HS 578T breast
SNB-19 CNS = tested on: SNB-19 CNS
M14 melanoma = tested on: M14 melanoma
NCI-H226 lung = tested on: NCI-H226 lung
OVCAR-8 ovarian = tested on: OVCAR-8 ovarian
PC-3 prostate = tested on: PC-3 prostate
A549 NSCLC = tested on: A549 NSCLC
SK-MEL-2 melanoma = tested on: SK-MEL-2 melanoma
SN12C renal = tested on: SN12C renal
MALME-3M melanoma = tested on: MALME-3M melanoma
SNB-75 CNS = tested on: SNB-75 CNS
EKVX NSCLC = tested on: EKVX NSCLC
TK-10 renal = tested on: TK-10 renal
KM12 colon = tested on: KM12 colon

`Cc1cccc(Cn2cc(CO)c3cnccc32)c1` was tested, and the GI50 (A498 renal) was 10 µM, the TGI (A498 renal) was 26.7 µM and the GI50 (NCI-H23 lung) was 19.2 µM. For the same molecule, the TGI (NCI-H23 lung) was greater than 100 µM, the GI50 (SK-MEL-5 melanoma) was 24.1 µM and the TGI (SK-MEL-5 melanoma) was greater than 100 µM. It also gave a GI50 (CAKI-1 renal) greater than 100 µM, a TGI (CAKI-1 renal) greater than 100 µM and a GI50 (OVCAR-3 ovarian) of 40.1 µM. The TGI (OVCAR-3 ovarian) was greater than 100 µM, the GI50 (BT-549 breast) was 35.7 µM and the TGI (BT-549 breast) was greater than 100 µM. It also gave a GI50 (ACHN renal) greater than 100 µM, a TGI (ACHN renal) greater than 100 µM and a GI50 (NCI-H522 lung) of 60.3 µM. It also gave a TGI (NCI-H522 lung) greater than 100 µM, a GI50 (UACC-257 melanoma) of 44.2 µM and a TGI (UACC-257 melanoma) greater than 100 µM. The GI50 (RPMI-8226 leukemia) was 3.82 µM, the TGI (RPMI-8226 leukemia) was 72.9 µM and the GI50 (HOP-62 NSCLC) was greater than 100 µM. It also gave a TGI (HOP-62 NSCLC) greater than 100 µM, a GI50 (UO-31 renal) of 46.4 µM and a TGI (UO-31 renal) greater than 100 µM. For the same molecule, the GI50 (MDA-MB-231 breast) was greater than 100 µM, the TGI (MDA-MB-231 breast) was greater than 100 µM and the GI50 (HS 578T breast) was greater than 100 µM. The TGI (HS 578T breast) was greater than 100 µM, the GI50 (SNB-19 CNS) was greater than 100 µM and the TGI (SNB-19 CNS) was greater than 100 µM. It also gave a GI50 (M14 melanoma) greater than 100 µM, a TGI (M14 melanoma) greater than 100 µM and a GI50 (NCI-H226 lung) of 32 µM. For the same molecule, the TGI (NCI-H226 lung) was greater than 100 µM, the GI50 (OVCAR-8 ovarian) was 53.7 µM and the TGI (OVCAR-8 ovarian) was greater than 100 µM. The GI50 (PC-3 prostate) was 28.2 µM, the TGI (PC-3 prostate) was greater than 100 µM and the GI50 (A549 NSCLC) was greater than 100 µM. The TGI (A549 NSCLC) was greater than 100 µM, the GI50 (SK-MEL-2 melanoma) was greater than 100 µM and the TGI (SK-MEL-2 melanoma) was greater than 100 µM. It also gave a GI50 (SN12C renal) greater than 100 µM, a TGI (SN12C renal) greater than 100 µM and a GI50 (MALME-3M melanoma) of 64.6 µM. The TGI (MALME-3M melanoma) was greater than 100 µM, the GI50 (SNB-75 CNS) was 69.4 µM and the TGI (SNB-75 CNS) was greater than 100 µM. It also gave a GI50 (EKVX NSCLC) of 20.9 µM, a TGI (EKVX NSCLC) greater than 100 µM and a GI50 (TK-10 renal) of 64.7 µM. It also gave a TGI (TK-10 renal) greater than 100 µM and a GI50 (KM12 colon) of 85.6 µM.
